# Source: a melting point compilation (Tetko et al.; mined from patent text by program, amines drawn as free bases though some values may be those of a salt)
row,Structure (SMILES),melting point [°C]
1,CC(=O)OCC(=O)Nc1cccc(Cl)c1C#N,109 to 110
2,Cc1nc2ccccc2n1Cc1ccc(C(=O)O)cc1,300
3,CCOC(=O)c1cn(C2CC2)c2nc(N3CCC(N)C3)c(F)cc2c1=O (centres undefined),144 to 146
4,CC(=O)C(=Cc1ccc(C(=O)O)cc1)C(C)=O,195 to 199
5,CC1(C)OC(=O)Nc2ccc(-c3coc(C#N)c3)cc21,255 to 256
6,C[C@@H](n1cnc2cc(-c3ccc(S(C)(=O)=O)cc3)sc2c1=O)[C@](O)(Cn1cncn1)c1ccc(F)cc1F,281 to 282
7,Brc1ccc2c(c1)CC(Cc1ccccc1)O2 (centres undefined),70 to 72
8,CC(C)(C)c1cc(SCCC(=O)N2CCOCC2)cc(C(C)(C)C)c1O,136 to 138
9,CC(=O)N1N=C(c2ccncc2)OC1c1c(F)cccc1F (centres undefined),119 to 121
10,COCCNC(=S)n1nc(Oc2ncc(C(F)(F)F)cc2Cl)cc1C,108 to 109
11,CCCCc1oc2ccc([N+](=O)[O-])cc2c1C(=O)c1ccc(OCCCCCBr)cc1,55
12,COc1cc(N)c(Cl)cc1C(=O)NCCN1CCC(n2c(=O)[nH]c3ccccc32)CC1,230
13,Cc1cccnc1NC(N)=S,152 to 154
14,COCOc1cc(OC)c(OC)cc1C#Cc1ccc(OC)c(OC)c1,84 to 86
15,N#Cc1ccccc1NCc1nc2ccc(F)cc2c(=O)n1-c1cccnc1Cl,183 to 187
16,CC(C)(C)OC(=O)Nc1cc(OCc2ccccc2)c2ncccc2c1I,118 to 119
17,CCOC(=O)OC1CCN(C(=O)OCC)Cc2c1nc1ccccc1c2C (centres undefined),40
18,COc1nc(C)nc(NC(=O)NS(=O)(=O)c2c(C)csc2C)n1,189
19,COc1ccc(CC2NC(=O)NC2=O)cc1OC1CCCC1 (centres undefined),151 to 153
20,Cc1csc2c1c(N1CCN(C(=O)c3cccs3)CC1)c(C#N)c(=O)n2Cc1ccccc1,223
21,CCc1[nH]n(C2CCCC2)c2nc(Cc3ccc(OC)cc3)nc(=O)c1-2,172 to 173
22,CNC(Cc1ccccc1NC(=O)C(C)(C)C)c1cccnc1 (centres undefined),91.5 to 96
23,CCOC(=O)c1nn(-c2cccc(Br)c2)c(=O)c2c(N)scc12,163 to 165
24,COc1ccc(CC(=O)C=NN=P(c2ccccc2)(c2ccccc2)c2ccccc2)cc1,111 to 112
25,O=C1COc2cc(F)c(NC(=O)c3ccccc3[N+](=O)[O-])cc2N1,> 248
26,CC#CCOc1cc(Cl)ncn1,43.5

row,Structure (SMILES),melting point [°C]
1,CCOC(=O)CC[C@H](NC(=O)c1cc(CCCc2coc3nc(N)nc(N)c23)cs1)C(=O)OCC,79 to 80
2,O=[N+]([O-])c1ccc(C=[N+]([O-])c2cccc(CO)c2)o1,187 to 188
3,Cc1nc(N)nc(N)c1C#CCc1ccccc1,145 to 149
4,CCCC(=O)Nc1ccc(C(=O)Nc2ccc3cc(CN4CCCC4)cnc3c2C)cc1,192 to 194
5,CC1CCN(c2ccc(Nc3ncc4c(n3)SCC(=O)N4)cc2)CC1,278 to 280
6,CCc1ccsc1C(=O)O,106 to 109
7,N#CC1=C(c2ccccc2)CN(c2ccccc2)C1=O,188 to 190
8,CN[C@@]1(C)CCN(c2c(-c3cccc(F)c3)c(C)c(C#N)c3nc(C(=O)N(C)C)oc23)C1,178 to 180
9,CCCCCCCCOC(=O)c1ccc(C(=O)O)cc1,113
10,COc1ccc(-c2nc(Oc3ccc(C)cc3)ncc2C(=O)N2CCOCC2)cc1OC,152
11,CCCCc1cc(O)n2nccc2n1,177 to 178
12,Cc1ccccc1N1CCN(C2CCc3cc(O)ccc3C2)CC1 (centres undefined),177 to 179
13,O=c1oc2ncccc2n1CCCBr,62 to 63
14,O=C(Nc1ccccn1)c1nc2ccccc2[nH]1,206
15,CCOC(=O)c1ccc(C#CC(O)c2cc(C(C)(C)C)cc(C(C)(C)C)c2OCOC)cc1 (centres undefined),89 to 91
16,O=c1ccccn1[C@@H]1c2cc([N+](=O)[O-])ccc2OC(CF)(CF)[C@H]1O (relative stereo),226 to 228
17,Cc1ccc(-n2c(-c3ccc(S(C)(=O)=O)cc3)nc(O)c(C#N)c2=O)cc1C,> 285
18,CC(C)N(C(=O)c1ccc(CN2CCOc3cnccc32)c(Br)c1)C1CCCCC1,191 to 192
19,CC(=O)NNC(=N)CCCCn1cnc(NC(N)=NCC(F)(F)F)n1,157 to 159
20,CN(Cc1cccc2c1C(=O)N(C1CCC(=O)NC1=O)C2=O)C(=O)Nc1ccc(Cl)c(Cl)c1 (centres undefined),255 to 257
21,C=CCNc1nc(N)nc2c1ncn2C1C=CC(CO)C1 (centres undefined),181 to 183
22,Cc1nc(-c2ccc(OC(F)(F)F)cc2)ccc1CO,68 to 69
23,CC(c1oc2ccccc2c(=O)c1-c1cccc(F)c1)n1nc(-c2ccc3c(c2)CCO3)c2c(N)ncnc21 (centres undefined),238 to 241
24,CC=Cc1nc2ccc(C)cc2c(=O)[nH]1,232 to 233
25,Nc1ncc(-c2ccc(C(F)(F)F)cc2)cc1C(F)(F)F,168
26,CCCCCCCCCCCC(CC(=O)O)OC(C)=O (racemic),37

row,Structure (SMILES),melting point [°C]
1,Nc1cc(S(=O)c2ccccc2)ccc1Cl (centres undefined),89 to 90
2,N#CC(=Cc1cc(O)c(O)c([N+](=O)[O-])c1)C(=O)NCCCO,223 to 228
3,COc1ccc(-c2ccc3c(Cl)c(OC)ccc3c2)cc1,158 to 164
4,CCn1c(=O)c2nc(C(=O)O)cn2c2ccccc21,250 to 252
5,Cc1cc(-c2c(-c3ccc(F)cc3)nn3cccnc23)ccn1,164 to 166
6,COC(=O)C(C)Oc1ccccc1S(=O)(=O)NC(=O)Nc1nc(C)cc(C)n1 (centres undefined),200 to 203
7,CCc1ccc2cc(OC)cc(NC(C)CCCN)c2n1 (centres undefined),111 to 114
8,COCCOc1c(C)cc(-c2nc3cc(OC)cc(OC)c3c(=O)[nH]2)cc1C,201 to 202
9,O=C(Oc1cc(F)ccc1[N+](=O)[O-])c1cc2cc(CCl)ccc2oc1=O,205 to 208
10,CN(C(=O)Nc1ccc(Cl)c(Cl)c1)S(=O)C(C)(C)C (centres undefined),118
11,CC(C)(C)OC(=O)NNc1ccc(N)cn1,140 to 142
12,CCOc1cc2c(cc1OCC)-c1c(C#N)sc(=O)n1CC2,172 to 174
13,CCCN(CCC)[C@@H]1Cc2c(Br)ccc3c2[C@@H](C1)CN3C(=O)c1ccccc1,93
14,Cn1c(Nc2cc(C(F)(F)F)ccc2Cl)nc(C(F)(F)F)cc1=O,158 to 159
15,CC(=O)CC(=O)Nc1cccc(OCc2ccccc2)c1,80
16,COc1cccc(CNC(=O)c2nc3sc(C(N)=O)c(C)c3c(=O)[nH]2)c1,258
17,Cc1nnc(-c2ccc3occ(-c4cccc(OCc5ccccc5)c4)c3c2)o1,96 to 97
18,CCCCCCCCOC(=O)c1nc(Cl)c(Cl)nc1N,85
19,Cc1cc2cn[nH]c2c(C(=O)NC(C)C)c1NC(=O)c1cc(OCC(F)(F)F)nn1-c1ncccc1Cl,247 to 250
20,CCCCCCCCCCCCCCCCCCOCC(CBr)OCCCCCCCCCCCCCCCCCC (centres undefined),38 to 38.8
21,COc1ccc(OC)c2c1C[C@](O)(C1(C)OCCO1)CC2=O,183 to 184
22,CC(C(=O)Nc1ccc2c(c1)OCO2)N1CCN(c2ccccn2)CC1 (centres undefined),189 to 191
23,O=C1OC(Cc2ccccc2)(Cc2ccccc2)C2CNCCN12 (centres undefined),132 to 133
24,CCOC(=O)C1C=CC(c2ccccc2)n2c(=O)n(CO)c(=O)n21 (centres undefined),129 to 133
25,CCOC(=O)C1=NN(C(=O)c2ccccc2I)C(C(=O)OCC)=NN1C(=O)c1ccccc1I,186 to 187
26,NNc1nc(N)c2ncn(COCCO)c2n1,220 to 222

row,Structure (SMILES),melting point [°C]
1,CCOC(=O)c1nc(C(=O)Oc2ccccc2)sc1N,168
2,CCOC(=O)c1c(O)c2cc(OCc3ccccc3)ccc2c(=O)n1CC(C)C,92 to 93
3,N#Cc1cnn(-c2c(Cl)cc(Cl)cc2Cl)c1C=O,152
4,O=C1CCCCc2ccc(N3C[C@H](CO)OC3=O)cc21,144 to 146
5,COC(=O)C(C)=C1CCC2C3CCC4=CC(=O)CCC4(C)C3CCC12C (centres undefined),149 to 151
6,CCOC(=O)COc1cc(F)ccc1[N+](=O)[O-],37 to 39
7,CC(CCCl)C(=O)Nc1cc(C(C)(C)C)no1 (centres undefined),135 to 137
8,O=Cc1ccc(Oc2ccc3c(c2)OCO3)cc1,67 to 70
9,c1nc(-c2ccc3c(c2)OCO3)c2cc3c(cc2n1)OCO3,180 to 185
10,Cc1cnc(-c2nn(C)c(OC(F)F)c2Cl)c(F)c1,41 to 42
11,O=C(CNC(=O)OCc1ccccc1)NCCCCCCO,104 to 105
12,NC(=NCC(F)(F)F)Nc1ccn(CCCCO)n1,105 to 106
13,COC(=O)/C=C/c1cnc2ccccc2c1,118 to 120
14,COc1ccccc1N1CCN(CCC(C(=O)NCCN2CCOCC2)c2ccccc2)CC1 (centres undefined),60 to 65
15,CCOP(=O)(OCC)C(O)c1cccc(F)c1 (centres undefined),81 to 82
16,O=c1c2c(Cc3ccccc3Cl)n[nH]c2c2cccnc2n1-c1cccc(OC(F)(F)F)c1,273 to 275
17,COc1ccc(-c2cc3cc(F)c(F)cc3[nH]2)cc1NC(=S)Nc1cccc(C(=O)O)c1,221 to 223
18,C=CCc1c(C)ccc(N2C(=O)c3ccccc3C2=O)c1OCc1ccccc1,107 to 109
19,O=C(O)CCCCCCCCn1c(-c2ccccc2)nc(-c2ccccc2)c1-c1ccccc1,149 to 150
20,Nc1c(F)c(F)nc(-n2cc(C(=O)O)c(=O)c3cc(F)c(F)c(Cl)c32)c1F,280 to 283
21,COc1ccc(S(=O)(=O)N2Cc3cc4c(cc3CC2C(=O)NO)OCO4)cc1 (centres undefined),166
22,N#Cc1cccc2c1nc(-c1c(F)cccc1F)n2Cc1c(F)cccc1F,153 to 155
23,COc1cc2sc(C(N)=O)cc2c(Cl)c1OC,180 to 182
24,CCOCc1nc2c(N)nc3cccnc3c2n1CC(C)(C)NC(=O)NC(C)C,172 to 174
25,CCc1cc(Cl)n2nccc2n1,66 to 68
26,Fc1ccccc1C1=NCc2c[nH]cc2-c2ccc(Cl)cc21,197 to 199
